In US20150250882A1, “Fatty Acid Acylated Amino Acids for Growth Hormone Delivery” (Novo Nordisk Health Care AG, priority 2012, published 2015):
One block for each compound: values may come before it.

Legend:
HT29-MTX (E12) cells = assay: Transepithelial transport of GH compounds across E12 cell monolayers (Papp); type: in vitro ADME; conditions: for Fold increase (Papp of GH A2 + FA-aa relative to GH A2 alone): GH-A2, same procedure: 0.5 mM FA-aa, transport buffer pH 7.4; for effect on permeation / trans-epithelia transport of the growth hormone compounds (in words): GH-A1 and GH-A2; for effect on GH A1 transport (in words): based on fold increase relative to GH A1 alone; for effect on the transportation of GH A2 (in words): fold increase relative to GH A2 alone
Description: HT29-MTX (E12) cells (Pharm Res. 2001; 18(8):1138-45 and Pharm Res. 2007; 24(7):1346-56) were grown in Dulbecco's Modified Eagle Medium supplemented with 10% foetal bovine serum (FBS), 1% penicillin/streptomycin, 1% L-glutamine and 1% non-essential amino acids. For the transport assay, E12 cells were seeded onto tissue culture treated polycarbonate filters in 12-well Transwell® plates (1.13 cm2, 0.4 μm pore size) at a density of 10^5 cells per well. Cells were cultured at 37° C. in an atmosphere of 5% CO2 and the culture media was exchange every second day. Transport experiments were performed after 14-18 days in culture.
The amount of GH compound transported from the donor chamber (apical side) to the receiver chamber (basolateral side) was measured.
Before the experiment, the E12 cells are equilibrated for 60 min with transport buffer on both sides of the epithelium. Buffer is then removed and the experiment initiated by adding a test solution to the donor chamber and a corresponding transport buffer to the receiver chamber. Donor samples ([…]) are taken at 0 min and at the end of the experiment. Receiver samples ([…]) are taken at regular intervals such as every 15 min. The study is usually performed in an atmosphere of 5% CO2-95% O2 at 37° C. on a shaking plate (30 rpm).
Transport of [3H]mannitol, a marker for paracellular transport, may be measured, to verify the integrity of the epithelium, using a scintillation counter.
Before and during the experiment the transepithelial electrical resistance (TEER) of the cell monolayers is monitored. The TEER is measured with EVOM™ Epithelial Voltohmmeter connected to Chopsticks.
The transport study was performed as described in General Method D (Example 1). […] […] The permeation (Papp) of a Growth hormone compound in the presence of different FA-aa's was measured and the fold increase (or decrease) compared to the Growth hormone compound alone was calculated.

[1] = Intra intestinal (mid-jejunum) administration of GH compounds with FA-aa to rats, AUC enhancement; type: in vivo, Sprague-Dawley rats; conditions: SBTI 2% with C16-sarcosinate 30 mg/ml, FIGS. 5, 6 and 7
Description: Each composition is prepared as a 100 pl dosage injected into mid-jejenum of fully anaesthetized overnight fasted Sprague-Dawley rats (n=6, 9 or 18).
At each sampling time 0.25 ml blood is drawn from the tail vein using a 25 G needle. Sampling times are: pre-dose and 0.25, 0.5, 1, 2, 4 and 6 hours after dosing. The blood is sampled into a EDTA coated test tube and stored on ice until centrifugation at 1200×G for 10 min at 4° C. Plasma is transferred to a Micronic tube and stored at −20° C. until analysis.
The limit of detection of the assay was 0.2 nM.
The samples were analysed using a Luminescence Oxygen Channeling Immunoassay (LOCI), a homogenous bead based assay. […] One of the bead reagents is a generic reagent (donor beads) and is coated with streptavidin and contains a photosensitive dye. The second bead reagent (acceptor beads) is coated with an antibody making up the sandwich. […] Illumination of the complex releases singlet oxygen from the donor beads which channels into the acceptor beads and triggers chemiluminescence which is measured in the EnVision plate reader. […]

[2] = Pharmacokinetics (T½) of growth hormone compounds in rats after i.v./s.c. single dose; type: in vivo, Sprague Dawley rats; conditions: assay of Example 1.C (i.v. or s.c.)
Description: The pharmacokinetic of the compounds of the examples is investigated in male Sprague Dawley rats after intravenous (i.v.) and subcutaneous (s.c.) single dose administration.
Test compounds are diluted to a final concentration of 1 mg/mL in a dilution buffer consisting of: Glycine 20 mg/mL, mannitol 2 mg/mL, NaHCO3 2.5 mg/mL, pH adjusted to 8.2.
The test compounds are studied in male Sprague Dawley rats weighing 250 g. The test compounds are administered as a single injection either i.v. in the tail vein or s.c. in the neck with a 25 G needle at a predetermined dose such as of 15 nmol/rat in volume of 0.1 ml (concentration 150 nmol/ml) or 60 nmol/kg body weight. […]
At each sampling time 0.25 ml blood is drawn from the tail vein using a 25 G needle. The blood is sampled into a EDTA coated test tube and stored on ice until centrifugation at 1200×G for 10 min at 4° C. […]
Test compound concentrations are determined by a sandwich ELISA using a guinea pig anti-hGH polyclonal antibody as catcher, and biotinylated hGH binding-protein (soluble part of human GH receptor) as detector. […]
A non-compartmental pharmacokinetic analysis is performed on mean concentration-time profiles of each test compound using WinNonlin Professional (Pharsight Inc., Mountain View, Calif., USA). The pharmacokinetic parameter estimates of terminal half-life (t1/2) and mean residence time (MRT) are calculated.

Compound: CCCCCCCCCC(=O)N(C)CC(=O)O [C10-Sarc, N-decanoyl-L-sarcosine]
Fold increase (Papp of GH A2 + FA-aa relative to GH A2 alone) (HT29-MTX (E12) cells): 0.7 fold

Compound: CCCCCCCCCCCC(=O)NCC(=O)O [C12-Gly, N-dodecanoyl-L-glycine]
Fold increase (Papp of GH A2 + FA-aa relative to GH A2 alone) (HT29-MTX (E12) cells): 3.4 fold

Compound: CCCCCCCCCCCCCCCC(=O)N(C)CC(=O)[O-].[Na+] [C16-Sarc, sodium 2-[hexadecanoyl(methyl)amino]acetate]
effect of protease inhibitor on GH absorption enhancing effect of FA-aa (in words) [1]: significantly improved by the presence of an enzyme inhibitor

Compound: wt human growth hormone: human growth hormone identified by SEQ ID NO 1
T ½ [2]: 12 to 14 min

More lines, now with the values ahead:

Fold increase (Papp of GH A2 + FA-aa relative to GH A2 alone) (HT29-MTX (E12) cells): 1.8 fold
Compound: CCCCCCCCCCCCCCCC(=O)NC(CC(=O)O)C(=O)O (stereo not drawn) [C16-(D)-Asp]

Fold increase (Papp of GH A2 + FA-aa relative to GH A2 alone) (HT29-MTX (E12) cells): 4.1 fold
Compound: CCCCCCCCCCCCCCCC(=O)NC(CCC(=O)O)C(=O)O [C16-D-Glu]

effect on permeation / trans-epithelia transport of the growth hormone compounds (in words) (HT29-MTX (E12) cells): superior effect | effect on GH A1 transport (in words) (HT29-MTX (E12) cells): biggest effect | effect on the transportation of GH A2 (in words) (HT29-MTX (E12) cells): biggest effect
Compound: CCCCCCCCCCCCCCCC(=O)N[C@@H](CCC(N)=O)C(=O)[O-].[Na+] [C16-Gln, sodium (2S)-5-amino-5-oxo-2-(hexadecanoylamino)pentanoate]

effect on permeation / trans-epithelia transport of the growth hormone compounds (in words) (HT29-MTX (E12) cells): superior effect | effect on GH A1 transport (in words) (HT29-MTX (E12) cells): biggest effect | effect on the transportation of GH A2 (in words) (HT29-MTX (E12) cells): biggest effect
Compound: CCCCCCCCCCCCCCCC(=O)N[C@@H](CCC(=O)[O-])C(=O)[O-].[Na+].[Na+] [C16-Glu, disodium (2S)-2-(hexadecanoylamino)pentanedioate]
